Test results published in US6346517B1, “Synergy between low molecular weight heparin and platelet aggregation inhibitors, providing a combination therapy for the prevention and treatment of various thromboembolic disorders” (Bristol-Myers Squibb Pharma Company, priority 1999, dated 2002).
Entries after “also recorded” stand apart in the source; their conditions may differ. Each block holds one molecule with its values, some of them ahead of it.

Columns and labels:
preformed clot = test: Thrombolysis of a preformed carotid clot in rats (reperfusion, patency, reocclusion); type: in vivo; conditions: for effectiveness in preventing thrombosis in this rat model: 0.3 mg/kg i.v., free acids
Method: (§1) Rabbits were anesthetized with ketamine (50 mg/kg i.m.) and xylazine (10 mg/kg i.m.) and then surgically prepared with arterial and venous catheters. An electromagnetic flow probe was placed on a segment of an isolated carotid artery to monitor blood flow. Thrombus formation was induced by electrical stimulation of the carotid artery for 3 min at 4 mA using an external stainless-steel bipolar electrode. Carotid blood flow was measured continuously over a 90-min period to monitor thrombus occlusion. Test agents were infused intravenously 1 hour prior to the electrical stimulation of the carotid artery and continuously during the 90-min period.
Experiments were conducted in rats anesthetized with ketamine (110 mg/kg i.m.) and xylazine (10 mg/kg i.m.). The protocol is similar to the rabbit protocol as described above in Example 1 except that the free acid of a compound of the formula (B): [drawing 11]
or the free acid of sibrafiban and/or TPA were given 5 min after a preformed clot was formed. The measured parameters were time to reperfusion, duration of patency and incidence of reocclusion. The doses of TPA, sibrafiban and compound B used were 1, 0.3 and 0.3 mg/kg i.v., respectively.

[1] = test system: carotid artery thrombus formation; test: Electrically induced carotid artery thrombosis, carotid blood flow (rabbit model of arterial thrombosis); type: in vivo; conditions: i.v. infusion from 1 hour before and during 90 min after electrical stimulation, aspirin 1 mg/kg/hr, Compound (A) 0.03 mg/kg/hr, Fragmin 60 U/kg/hr
Method: as §1

[2] = test system: clot formation in human whole blood; test: Computerized thromboelastography (TEG): mediator-induced clot formation under shear in whole blood; type: cell-based; conditions: for enhancement of clot strength by platelets: TF-accelerated clot formation
Method: Clot formation was monitored at 37° C. in an oscillating plastic cylindrical cuvette (“cup”) and a coaxially suspended stationary piston (“pin”) with a 1 mm clearance between the surfaces, using a computerized Thrombelastograph (CTEG Model 3000, Haemoscope, Skokie, IL). The cup oscillates 4°45′ ( 1/12 radian) in either direction every 4.5 seconds, with a 1 second mid-cycle stationary period; resulting in a frequency of 0.1 Hz and a maximal shear rate of 0.1 per second. The pin is suspended by a torsion wire that acts as a torque transducer. […] The torque experienced by the pin (relative to the cup's oscillation) is plotted as a function of time. The amplitude on the TEG tracing is a measure of the rigidity of the clot; the peak strength or the shear elastic modulus attained by the clot, G, is a function of clot rigidity and can be calculated from the maximal amplitude (MA) of the TEG tracing.
The following parameters were measured from the TEG tracing (FIG. 5):
R, the reaction time (gelation time) represents the latent period before the establishment of a 3-dimensional fibrin gel network (with measurable rigidity of amplitude=2 mm).
Maximum Amplitude (MA, in mm) is the peak rigidity manifested by the clot.
Shear elastic modulus or clot strength (G, dynes/cm^2) is defined by: G=(5000* MA)/(96-MA) for computerized TEG. […]
To assess the effect of the TF modification on peak clot strength (G) was measured with and without the addition of TF in paired samples of WB and PRP. To document the contribution of activated platelets to the elastic modulus of fibrin clots, the effect of platelet number was measured by serially diluting PRP with PPP. The platelet count of each dilution was measured before performing TEG. […] The Thrombelastograph maximum amplitude (MA) for platelets MA (PLT)) was calculated by subtracting the MA from a platelet-poor plasma (PPP) sample MA (PPP) determined in one thromboelastography well from that of whole blood MA (WB) run simultaneously in the second thromboelastography well.

[3] = rat, TPA 1, sibrafiban 0.3, compound B 0.3 mg/kg i.v., given 5 min after preformed clot, free acids used

Molecule: CC(=O)O.CCCCOC(=O)N[C@@H](CNC(=O)C[C@H]1CC(c2ccc(C(=N)N)cc2)=NO1)C(=O)OC (stereo in doubt) [Compound B, roxifiban]
effectiveness in preventing thrombosis in this rat model (preformed clot): equal effective

Molecule: CC(=O)Oc1ccccc1C(=O)O [Aspirin, aspirin, reference compound]
effect on occlusion of the artery / carotid blood flow [1]: did not prevent the occlusion of the artery

Molecule: CS(=O)(=O)O.Cc1noc(C)c1S(=O)(=O)N[C@@H](CNC(=O)C[C@H]1CC(c2ccc(C(=N)N)cc2)=NO1)C(=O)O [Compound (A)]
effect on occlusion of the artery / carotid blood flow [1]: did not prevent the occlusion of the artery; also recorded: not effective

Molecule: CC(=O)O.CCCCOC(=O)N[C@@H](CNC(=O)C[C@H]1CC(c2ccc(C(=N)N)cc2)=NO1)C(=O)OC [Compound B, roxifiban]
enhancement of clot strength by platelets [2]: inhibited

Molecule: CCOC(=O)COC1CCN(C(=O)[C@H](C)NC(=O)c2ccc(C(=N)NO)cc2)CC1 [sibrafiban, reference compound]
effectiveness in preventing thrombosis in this rat model (preformed clot): equal effective

IC50, clot formation (clot retraction) induced by LPS ([2]; LPS 6.25 μg, human whole blood, mean ± SEM): 0.09 ± 0.01 µg/mL
Molecule: TFPI: Tissue factor pathway inhibitor

Molecule: tissue plasminogen activator [TPA]
Incidence of reocclusion (preformed clot; rat, TPA 1, sibrafiban 0.3, compound B 0.3 mg/kg i.v., given 5 min after preformed clot, animals reoccluded/total): 15/17
Duration of patency (preformed clot; [3]): 29 ± 2%
Time to reperfusion (preformed clot; [3]): 32 ± 6 min

B1: Abciximab: c7E3 Fab (Abciximab, Centocor), platelet GPIIb/IIIa antagonist (antibody, chains of the INN, looked up, V domains shown)
VH: EVQLQQSGTVLARPGASVKMSCEASGYTFTNYWMHWVKQRPGQGLEWIGAIYPGNSDTSYIQKFKGKAKLTAVTSTTSVYMELSSLTNEDSAVYYCTLYDGYYVFAYWGQGTLVTVSA
VL: EIVLTQSPVTLSVTPGDSVSLSCRASRDISNNLHWFQQTSHESPRLLIKYASQSMSGIPSRFSGSGSGTDFTLSINSVETEDFGMYFCQQTNSWPYTFGGGTKLEIK
modifications: Fab
notes: c7E3 Fab (Abciximab, Centocor), platelet GPIIb/IIIa antagonist
enhancement of clot strength by platelets [2]: inhibited
